According to US9205137B2, “Maturation of gastrointestinal tract” (ANARA AB, priority 2010, dated 2015):

What was measured:
suckling rats [1] = experiment: Papain vs microbial protease: intestinal disaccharidase activity in proximal SI, Example 8; assay type: in vivo, Rattus norvegicus; settings: proximal part of SI, in words (FIG. 13)
From the text: (§1) The litter size for each dam was limited to 12 or 13 pups, to reduce variability.
(§2) Suckling pups were divided into 3 groups depending on the treatments; microbial protease as a positive control, water as negative control and enzyme from papaya fruit (papain) (in total; protease=7, papain=8, control=7). The enzymes are available in the market in form of powders and were resolved in distilled water prior to stomach feeding during 14-16 d of age. The administered dose for each enzyme was 10000 USP/animal. The volume of administered enzymes and water (for control groups) was 0.01 ml/g b.wt. Prior to the feeding procedure, the pups were weighed. […] Three hours later, the pups were anaesthetized and organs were dissected out for analyses.
The activities of the brush-border enzymes lactase, maltase and sucrase were analyzed in the proximal part of the SI in groups treated with papain and protease.

suckling rats [2] = experiment: Set I: body weight, GI and lymphoid organ weights, stomach pH after individual enzymes or mixture, Example 3
Procedure: All experiments were performed in young suckling rats by feeding them from 14 days of age via stomach tube for 3 continuous days (ones a day). One day after last treatment rats were euthanized and plasma and organs proceeded to study structural and functional changes of gastrointestinal system.
The pups were kept with their dam until dissection day (day 17).
In this set suckling pups were divided into five groups; control (water) amylase 10 000 USP/rat/day, lipase 4 000 USP/rat/day, protease 15 000 USP/rat/day, and mixture of these enzyme with corresponding activities per rat and day. This study was evaluating the effects of different pancreatic-like enzymes on the gut maturation and functioning and had 3 individual litters; n=12, n=10 and n=13, totally n=7 pups per each group. Each of the enzymes (Amylase, Protease and Lipase) (Sigma Aldrich) was available in the powder form and was resolved in distilled water prior to stomach feeding during days 14, 15 and 16. The volume of administered enzymes and distilled water (for control groups) was 0.01 ml/g BW. Each time, prior to the feeding procedure, the pups were weighed. […] Then 3 hours later, the pups were sedated with CO2 and anaesthetized by subcutaneous injection with a mixture of ketamine (Ketalar®, Pfizer, New York, USA, NaCl and azaperone (Stresnil®, Janssen Pharmaceutica, Beerse, Belgium), 0.01 ml/g BW. After opening the abdomen of the rats, 1 ml of blood was collected from heart by using syringes containing protease inhibitor and EDTA (50 μl) as anticoagulant and was transferred into ice-chilled tubes. After this, the pancreas was immediately dissected and rinsed with cold 0.9% NaCl, weighted and stored at −70 C. The SI was removed and its length was measured then divided into two halves, proximal and distal. Each segment was flushed out with cold 0.9% NaCl to clean the lumen and was then weighed separately. […] The stomach was removed and its content was collected into the tube (for measuring its pH) and frozen. Then cecum was dissected out, opened, rinse and weighed as well as liver and lymphoid organs spleen and thymus were dissected and weighted.
The contents of the stomach were de-frozen and then resolved with 1 ml of cold 0.9% NaCl. After resolving, they were centrifuged and the pH was measured in the supernatant using pH-meter.
All data are presented as mean±standard deviation (SD). Statistical comparisons between each group and control group were performed using the t-test. Results were considered as significant when P<0.05.

suckling rats [3] = experiment: Set I: intestinal morphology of distal SI, Example 3; assay type: in vivo, Rattus norvegicus; settings: distal part of SI, in words
Procedure: (§3) All samples collected for histology were fixed with Bouin's solution for 24 hours and then stored in 70% ethanol, dehydrated, embedded into the paraffin and then cut into sections with 5 μm thickness. The tissue sections were transferred onto the slides, rehydrated and stained with H&E according to the standard technique. After mounting under cover slips samples were examined using light microscopy to estimate ratio between total length of the villus and length of the adult type enterocytes using ImageJ program.

suckling rats [4] = experiment: Set II: intestinal morphology of distal SI at different doses of protease, Example 4; assay type: in vivo, Rattus norvegicus; settings: in words (FIG. 8)
Procedure: The second study was about comparing the effect of different doses of protease (15000 USP, 7500 USP, 3750 USP and […]) on the development of the GI tract with control. In this experiment 2 litters of pups were used (n=13 and n=12). Pups were divided into five groups to fed with different doses of protease; 15000 USP (n=3), P7500 USP (n=6), P 3750 USP (n=6), P 1875 USP (n=5) and water as a control (n=5). The feeding was during 3 continuous days, once a day. 24 hours after the last feeding, on day 17, similar dissection steps and analytical procedures as mentioned for the previous experiment were followed.
as §3

suckling rats [5] = experiment: Papain vs microbial protease: body and organ weight, Example 8; assay type: in vivo, Rattus norvegicus
From the text: as §1, §2

suckling rats [6] = experiment: Papain vs microbial protease: macromolecule absorption (BSA, BIgG in plasma), Example 8; assay type: in vivo, Rattus norvegicus; settings: day 17, 3 hours after feeding, in words (FIG. 14)
From the text: as §1, §2

rat pups = experiment: Set III: health and growth monitored for 3 weeks after protease, early and normal weaning, Example 5; assay type: in vivo; settings: protease 15 000 USP
From the text: In the last study, the health and the growth of the pups were monitored for 3 weeks. Pups where treated at age 14 day of life with the protease 15 000 USP/rat/day for 3 days once a day (on days 14, 15, and 16). This study performed using 3 litters (n=9, n=11 and n=10) where pups were divided into 2 groups; enzyme treated and control. After last feeding rat were further divided into subgroups: early weaning started on day 17 (n=8) and normal weaning started on day 21 (n=6). All animals were monitored via weighing for one week on a daily basis and then once a week for the next 2 weeks.

suckling piglets = experiment: Suckling pig model II: marker molecules absorption in vivo after microbial protease, Experiment 10; settings: protease treated piglets vs control
Procedure: All piglets were kept with sow until the weaning day. Piglets from 5-6 litters divided into 2 groups and treated with microbial protease (Sigma) (enz group) or water (cont) (n=28 per group), total 56. The dose of enzymes was 60 mg/ml with activity 1000 USP per 1 mg, the administration volume was 4 ml/kg b. wt, the frequency of administration was every second day (ones a day). Treatment via gavage feeding was started at 8 d of age and was done 3 times, (i.e. 8, 10, 12 d of life).
Separate piglets (6 enzyme treated and 6 control pigs) were fed with marker molecule solution (Bovine serum albumin (BSA) in concentration 125 mg/ml and sodium fluorescein (NaF) in concentration 2.5 mg/ml; the administration volume was 4 ml/kg b.wt) at age 14 d of life and 27 d of life (the weaning day). Blood was collected at 0, […], 1, 2, 4, 8, and 24 hours after marker-cocktail feeding.

suckling rats [7] = experiment: Set I: plasma concentration of marker molecules BSA and BIgG (macromolecule absorption), Example 3; assay type: in vivo, Rattus norvegicus; settings: 3 hours after marker feeding, day 17, in words (FIG. 6)
From the text: The plasma level of marker molecules was quantified by using immunoassay rocket electrophoresis and SRI (single radial immunodiffusion) for plasma BSA and BIgG respectively.

[8] = 10000 USP/animal, days 14-16, day 17

Substance: Proteinase from Aspergillus melleus [Protease]
- activity of maltase compared to control (suckling rats [1]): significantly increased
- activity of sucrase compared to control (suckling rats [1]): significantly increased
- Body weight (suckling rats [2]; 3 days treatment, day 17): 33.6 ± 1.9 gr
- Cecum (suckling rats [2]; 3 days treatment, day 17): 4.0 ± 0.5 mg/g BW
- Distal SI (suckling rats [2]; 3 days treatment, day 17): 17.8 ± 2.5 mg/g BW
- Liver (suckling rats [2]; 3 days treatment, day 17): 35.8 ± 2.5 mg/g BW
- Pancreas (suckling rats [2]; 3 days treatment, day 17): 4.3 ± 0.4 mg/g BW
- Proximal SI (suckling rats [2]; 3 days treatment, day 17): 24.7 ± 3.5 mg/g BW
- SI length (suckling rats [2]; 3 days treatment, day 17): 1.7 ± 0.1 cm/g BW
- Spleen (suckling rats [2]; 3 days treatment, day 17): 3.4 ± 0.5 mg/g BW
- Stomach (suckling rats [2]; 3 days treatment, day 17): 7.2 ± 0.7 mg/g BW
- Thymus (suckling rats [2]; 3 days treatment, day 17): 3.96 ± 0.4 mg/g BW
- diarrhoea (suckling rats [2]; after receiving the first dose): diarrhoea observed after receiving the first dose
- pH (suckling rats [2]; stomach contents, day 17): 3.5 ± 0.3
- replacement of vacuolated enterocytes by adult type enterocytes (suckling rats [3]): all of the vacuolated enterocytes were replaced with adult type enterocytes
- vacuolated (fetal-type) enterocytes in distal SI (suckling rats [4]; protease 1875 USP): limited to the middle and the tip of the villi
- vacuolated (fetal-type) enterocytes in distal SI (suckling rats [4]; protease 3750 USP): limited to the middle and the tip of the villi
- vacuolated (fetal-type) enterocytes in distal SI (suckling rats [4]; protease 7500 USP): limited to the middle and the tip of the villi
- vacuolated (fetal-type) enterocytes in distal SI (suckling rats [4]; protease 15000 USP): all of the vacuolated enterocytes disappeared
- Body weight (suckling rats [5]; [8]): 34.8 ± 3.31 gr
- Cecum (suckling rats [5]; [8]): 2.89 ± 0.47 mg/g BW
- Distal SI (suckling rats [5]; [8]): 15.2 ± 2.3 mg/g BW
- Liver (suckling rats [5]; [8]): 32.22 ± 1.37 mg/g BW
- Pncrease (suckling rats [5]; [8]): 3.87 ± 0.34 mg/g BW
- Proxima SI (suckling rats [5]; [8]): 20.24 ± 2.37 mg/g BW
- SI length (suckling rats [5]; [8]): 1.59 ± 0.18 cm/g BW
- Spleen (suckling rats [5]; [8]): 3.18 ± 0.23 mg/g BW
- Stomach (suckling rats [5]; [8]): 6.71 ± 0.41 mg/g BW
- Thymus (suckling rats [5]; [8]): 4.95 ± 0.93 mg/g BW
- effect on body growth (suckling rats [5]; dose 10 000 USP, days 14 to 17, in words (FIG. 12)): No effect
- uptake of macromolecules, BIgG absorption (suckling rats [6]): significantly lower
- diarrhea (rat pups; after first treatment): signs of diarrhea
- growth in comparison to control group (rat pups; in words (FIG. 9)): decrease in growth after first treatment
- effect of early weaning on treated group (rat pups; weaning day 17, in words): no disadvantage
- intestinal permeability for BSA (suckling piglets; in words (FIG. 20A)): decreased intestinal permeability
- intestinal permeability for NaF (suckling piglets; in words (FIG. 20B)): decreased intestinal permeability
- uptake of marker molecule BIgG to plasma (suckling rats [7]): significantly lower
- uptake of marker molecule BSA to plasma (suckling rats [7]): significantly lower
